Reference: US20250114312A1, “TREATMENT OF COPPER DISORDERS” (PhilERA New Zealand Ltd., priority 2021, published 2025)

Legend:
[1] = in-life phase, albino and pigmented rats, 10 mg/kg oral
[2] = human, in vivo
[3] = Permeability in Caco-2 barrier model; conditions: human, Caco-2, pH 7.4
Experimental: (§1) Digoxin was used as marker to check for Pgp activity in the cultures. […] Samples were recovered from receptor compartments after 0, 15, 30, 45, 60, and 120 minutes, and further analyzed by liquid scintillation counting. Samples were also recovered a time 0 and 120 minutes from the donor compartments for mass balance evaluation. Each condition was performed in 3 replicated transwell filters in the presence of the Caco-2 barrier.

Caco-2 barrier model = assay: Permeability in Caco-2 barrier model; conditions: for Papp, B-A direction: compound alone
Experimental: as §1

urinary copper excretion = conditions: in vivo
Pgp = Pgp (Homo sapiens, UniProt P08183); conditions: Caco-2
Chain of Pgp (P08183 whole entry): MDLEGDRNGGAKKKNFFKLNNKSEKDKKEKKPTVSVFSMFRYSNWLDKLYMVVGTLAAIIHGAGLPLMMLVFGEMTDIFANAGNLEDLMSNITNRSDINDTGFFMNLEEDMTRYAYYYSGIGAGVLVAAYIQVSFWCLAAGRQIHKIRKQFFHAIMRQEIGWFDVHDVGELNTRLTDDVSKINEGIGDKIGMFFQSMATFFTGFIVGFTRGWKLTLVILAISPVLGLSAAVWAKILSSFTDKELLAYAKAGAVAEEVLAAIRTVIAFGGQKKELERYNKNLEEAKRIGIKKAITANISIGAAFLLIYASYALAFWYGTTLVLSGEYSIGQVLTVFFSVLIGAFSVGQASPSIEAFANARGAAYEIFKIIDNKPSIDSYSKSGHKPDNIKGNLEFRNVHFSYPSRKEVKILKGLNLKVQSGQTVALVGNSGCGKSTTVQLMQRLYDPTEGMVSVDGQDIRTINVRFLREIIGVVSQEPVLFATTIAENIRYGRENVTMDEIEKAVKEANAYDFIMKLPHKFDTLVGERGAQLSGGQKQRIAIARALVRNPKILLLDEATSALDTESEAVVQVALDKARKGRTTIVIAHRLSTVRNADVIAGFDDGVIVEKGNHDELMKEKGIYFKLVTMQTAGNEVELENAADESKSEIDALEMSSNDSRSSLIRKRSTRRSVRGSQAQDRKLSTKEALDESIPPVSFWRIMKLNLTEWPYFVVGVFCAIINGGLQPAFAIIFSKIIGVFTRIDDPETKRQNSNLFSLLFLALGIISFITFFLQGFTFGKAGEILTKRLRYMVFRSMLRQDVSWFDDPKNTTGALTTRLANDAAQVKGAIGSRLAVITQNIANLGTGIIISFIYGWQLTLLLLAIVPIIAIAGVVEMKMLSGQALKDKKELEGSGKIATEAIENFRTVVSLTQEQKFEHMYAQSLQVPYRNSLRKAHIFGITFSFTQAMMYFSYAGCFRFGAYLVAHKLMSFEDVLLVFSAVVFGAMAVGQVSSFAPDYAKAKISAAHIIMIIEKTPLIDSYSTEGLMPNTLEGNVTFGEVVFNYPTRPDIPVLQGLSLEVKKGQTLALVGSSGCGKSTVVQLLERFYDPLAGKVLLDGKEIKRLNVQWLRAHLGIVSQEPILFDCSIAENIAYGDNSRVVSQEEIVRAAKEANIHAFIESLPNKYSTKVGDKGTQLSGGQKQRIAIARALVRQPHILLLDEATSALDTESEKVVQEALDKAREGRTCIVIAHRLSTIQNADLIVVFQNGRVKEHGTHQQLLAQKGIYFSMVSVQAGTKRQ

**Q.** With `NCCNCCNCCN.O=C(O)CCC(=O)O.O=C(O)CCC(=O)O` as the compound, how does the “Animal observations attributable to administration” value [1] read?
**A.** No animal observations

**Q.** For `CC(=O)NCCNCCNCCNC(C)=O` [DAT, N1,N10-diacetyltriethylenetetramine], which “Median Tmax of DAT” value [2] is on record?
**A.** 5.0 to 6.0 h

**Q.** What about the “θ-VP,D/F/frM/frD Apparent volume for DAT” value (human, in vivo) of the same compound?
**A.** 197 L

**Q.** For `C[C@H]1O[C@@H](O[C@H]2[C@@H](O)C[C@H](O[C@H]3[C@@H](O)C[C@H](O[C@H]4CC[C@@]5(C)[C@H](CC[C@@H]6[C@@H]5C[C@@H](O)[C@]5(C)[C@@H](C7=CC(=O)OC7)CC[C@]65O)C4)O[C@@H]3C)O[C@@H]2C)C[C@H](O)[C@@H]1O` [Digoxin], which Papp A→B at 1 h, 0.02 mM [3] is on record?
**A.** 0.75 ×10⁻⁶ cm/s

**Q.** And the “Asymmetry Index” value (Caco-2 barrier model; B-A/A-B)?
**A.** 8.06

**Q.** What about the “Papp, B-A direction” value (Caco-2 barrier model) of the same compound?
**A.** 6.08 ×10⁻⁶ cm/s

**Q.** With `CC(=O)NCCNCCNCCN` [MAT, N1-acetyltriethylenetetramine] as the compound, how does the “θ-MTT Mean transit time for MAT formation” value (human, in vivo) read?
**A.** 0.381 h

**Q.** And the “θ-VP,M/F/frM Apparent volume for MAT” value (human, in vivo)?
**A.** 426 L

**Q.** With `NCCNCCNCCN.O=C(O)CCC(=O)O.O=C(O)CCC(=O)O` [PX811019, triethylenetetramine disuccinate] as the compound, how does the “Papp, B-A direction” value (Caco-2 barrier model; disuccinate) read?
**A.** No permeability was observed

**Q.** What about the “Predicted absorption in humans” value (Caco-2 barrier model; estimated from in vitro Papp value) of the same compound?
**A.** approximately 70%

**Q.** What about the “MAT t½” value ([2]; po) of the same compound?
**A.** 15.8239 h

**Q.** What about the “Difference in urinary excretion of copper due to formulation” value (urinary copper excretion) of the same compound?
**A.** no clear difference

**Q.** What about the “Level of cupriuresis versus dose” value (urinary copper excretion; po) of the same compound?
**A.** approximately the same at 435 and 1305 mg PX811019 and increased at the highest dose of 2175 mg

**Q.** And the “DAT t½ Predicted” value (human, in vivo, po)?
**A.** 0.390 h

**Q.** And the Pgp substrate (Pgp)?
**A.** would not be a Pgp substrate

**Q.** For `NCCNCCNCCN` [TETA, Triethylenetetramine, reference compound], which “Increase of VT,T/F for every 100 mg difference from the 750 mg dose” value (human, in vivo) is on record?
**A.** 6.37%

**Q.** And the “Inter-occasion variability of F” value (human, in vivo)?
**A.** 43.7 (17.3) [5.5] %

**Q.** What about the “Inter-occasion variability of ka” value (human, in vivo) of the same compound?
**A.** 69.4 (57.6) [16.3] %

**Q.** And the “Slope (SL) of copper excretion versus TETA concentration” value (in vivo)?
**A.** 41.8 (mg/L)^−1

**Q.** And the “θ-SL · ER0 Slope between TETA and Cu excretion rate” value (population mean)?
**A.** 24.3 (mg/L)^−1 · (μg/h)

**Q.** For Lucifer yellow, which “Papp of barrier quality markers” value (Caco-2 barrier model; Caco-2) is on record?
**A.** lower than 1×10^−6 cm/s
